Patent US10519423B1, “High efficiency reprogramming of fibroblasts into cardiomyocytes” (The Regents of the University of Colorado, a body corporate, priority 2015, dated 2019)

How the values were obtained:
[1] = system: MEFs; test: Counting of spontaneously beating cells in infected MEFs; assay type: cell-based, mouse; details: for spontaneously beating cells induced by GHMT2m in the presence of inhibitor: GHMT2m-MEFs treated 7 days, counted at day 9, Thiazovivin 2.5 μM, SR-3677 5 μM, GW788388 3 μM, LY-364947 1.5 μM, SD-208 1 μM
Procedure: (§1) Fibroblasts were plated on tissue culture dishes pre-coated with SureCoat (Cellutron) at a density of ˜40 cells/mm^2 before transduction. The fibroblast growth medium was replaced with freshly made viral mixture containing polybrene (Sigma). Twenty-four hours later, fibroblasts were infected again with viral mixture containing polybrene. Twenty fours later, the viral medium was replaced with induction medium, composed of DMEM/199 (4:1) (Gibco), 10% FBS (Gemini), 5% horse serum(Gemini), antibiotics (Gibco), 1× non-essential amino acids (Gibco), 1× essential amino acids (Gibco), 1× B-27 (Gibco), 1× insulin-selenium-transferin (Gibco), 1× vitamin mixture (Gibco), and 1× sodium pyruvate (Gibco). Medium was changed every two-three days until cells were examined.
Cells in 60 mm dishes were examined under an EVOS® FL Color imaging system (Life Technologies) at 25° C. Beating cells were counted at a field with an area of 0.89 mm^2. Ten to fifteen fields in each dish were randomly chosen.

[2] = system: iCMs; test: Spontaneous calcium transients in Fura-2 AM-loaded iCMs; assay type: cell-based, mouse; parameters: dose or concentration left out as unconfirmed; details: iCMs on days 10-12, isoproterenol
Source text: To determine whether iCMs were developing functional excitation-contraction (EC) coupling, we imaged spontaneous calcium transients from Fura-2 AM-loaded iCMs. Spontaneous calcium transients were detected in spontaneously beating cells on days 10-12 (FIGS. 68-71). […] To determine whether iCMs are able to appropriately respond to hormone stimulation, a critical function of normal cardiomyocytes, we measured calcium transients in response to the b-adrenergic agonist isoproterenol (Iso).

[3] = system: rats following MI; details: cited from earlier work
[4] = system: MEFs; test: Intracellular staining for flow cytometry (cTnT, Myc) in retrovirus-infected MEFs; assay type: cell-based, mouse; details: GHMT-infected MEFs, day 7; alone or treated with TGF-β1 (10 ng/ml) or A83-01 (0.5 μM, day 3 to day 7)
Procedure: C57BL6 pregnant mice at E13 were order from Charles River's laboratory. Embryos at E14.5 were harvested and their internal organs and head were removed. The body below the liver was minced using blade to fine pieces. Minced embryos were incubated with 2 ml of 0.25% trypsinIl mM EDTA, Phenol Red (Gibco) for 40 mins at 37° C. with 5% CO2. Cells were suspended in 25 ml of growth medium (DMEM/Hi glucose (Hyclone) 10% FBS (Gemini), 1.1% Penicillin-Streptomycin (Gibco) and 1.1% GlutaMAX supplement (Gibco)) and then plated on a 15 cm dish. In 24 hours, the media was aspirated and new 25 ml of growth medium was added. In 72 hours, MEFs were harvested and stored for future use.
as §1
Adherent fibroblasts were washed with DPBS (Gibco). Cells were detached from culture dish by treatment with 0.25% Trypsin/EDTA (Gibco) for 3 min at 37° C. Cells were then washed with 4 ml of 5% FBS (Gemini) in DPBS filtered through a cell strainer and centrifuge at 1200 rpm×6 mins. Cells were washed with 500 ul of 1% BSA in DPBS. Cells were fixed with BD Cytofix/Cytoperm™ solution in 0.2 ml/1 million cells in 1.5 ml eppendorf tube for 20 min on ice. Cells were washed with 1 ml of BD perm/wash buffer and Centrifuged for 6 min at 1200 rpm. The supernatant was discarded; cells were washed again with 1 ml of BD Perm/wash buffer and left overnight at 4° C. The next day, Cells were centrifuged for 6 min at 1200 rpm, the supernatant discarded and 100 μl of Blocking buffer made with 5% goat, donkey serum (Sigma: G9023 and D9663) in Perm/wash buffer was added to the cells and incubated for 30 min at RT. A primary antibody: Mouse Troponin T (cTnT) antibody (Thermo Scientific, ms-295-p, 1:200), mouse anti-C-Myc antibody (BD Pharmingen, 551102, 1:200) in 100 μl BD Perm/Wash buffer was added to the cells and incubated for 1 hr at RT. One ml cold BD Perm/wash buffer was added to the cells and centrifuged for 6 min at 1200 rpm. […] Cells were re-suspended in 300 ul of 1% BSA/DPBS and then analyzed using FACS Caliber (BD Sciences) and FlowJo software.

[5] = system: MEFs; test: Immunocytochemistry for cTnT and α-actinin in infected MEFs; assay type: cell-based, mouse
Procedure: as §1
(§2) Cells were fixed in 2% PFA for 15 min on ice then washed with DPBS (Gibco) three times at RT. The cells were permeabilized in 0.5% Triton X-100 (made in PBS) for 20 min at RT. After washing the cells with DPBS (Gibco), cells were incubated with the primary antibody against α-actinin (Sigma A7811, 1:300), Connexin 43 (Sigma, C6219, 1:500), Troponin T (Thermo Scientific MS-245-P, 1:500), α-SMA (Santa Cruz Biotechnology, SC-32251, 1:800), Myl2 (Proteintech, 10906-1-AP, 1:200), or Myl7 (Proteintech, 17283-1-AP, 1:200) in 10% FBS(Gemini) in DPBS for 1 hour at RT. Cells were wash with DPBS three times, 5 min each. Cell were incubated with the secondary antibody (Alexa Fluor 555 Molecular Probes A21422, 1:1000) and Hoechest (Molecular Probes 33342, 1:5000) for 30 mins at RT.

[6] = system: MEFs; test: Pro-fibrotic marker expression in infected MEFs (qPCR, Western blot, αSMA stress fiber immunostaining); assay type: cell-based, mouse
Procedure: (§3) Cells were harvested in TRizol reagent (Ambion) for RNA isolation. RNA was extracted with the RNeasy® Plus Universal Mini Kit (Qiagen). RT-PCR was performed using the Superscript III first-strand synthesis system (Invitrogen). qPCR was performed using the SYBR® Green PCR master mix (Applied Biosystems) or StepOne™ Real-Time PCR Systems (Applied Biosystems). Primers are listed in Supplementary Table 1. Ryr2 (Mm00465877_m1) and Myh7 (Mm01319006_91) are Taqman probes (Life technologies).
Samples were placed on ice and washed with ice-cold DPBS (Gibco) twice, then ice-cold lysis buffer (150 mM NaCl, 50 mM Tris-Cl pH7.4, 1 mM EDTA, 1% Triton, Complete mini tablet (Roche), 1 mM PMSF freshly added before use) was added to the cells. Cells were scraped and transferred to a pre-chilled 1.5 Eppendorf tube and frozen in liquid N2. Before used, the lysate was thawed on ice. The lysate was passed carefully through a 25 g needle for 5 times and then centrifuge at 14,000 rpm for 15 minutes at 4° C. The supernatant was transferred to a new 1.5 ml tube. The protein concentration was measured and 20 ug of lysate for each sample was loaded to SDSPAGE. Proteins were then transferred to PVDF. The PDVF membrane was blocked in 2.5% BSA in 1×TBST for 30 mins at room temperature (RT). The primary antibody was added in blocking buffer for 60 mins at RT. Wash in 1×TBST (20 mM Tris-Cl, pH7.4; 150 mM NaCl; 0.1% Tween20) three times at RT, each for 15 mins. The Secondary antibody was added in blocking buffer for 45 mins at RT. The membrane was washed in 1 XTBST for 15 mins, 1×TBST for 5 mins, then TBS (10 mM Tris-Cl pH8, 150 mM NaCl) for 5 mins. The membrane was resolved with Super Signal® West Pico (34080) or Femto (34095) substrate (Thermo Scientfic). The primary antibodies include: Snail (Cell Signaling, 3879S, 1:1000), Slug (Cell Signaling, 9585S, 1:1000), P-Smad2 (Cell Signaling, 23108P, 1:1000), Smad2 (Cell Signaling, 5339, 1:1000), αSMA (Santa Cruz, SC-32251, 1:10000), cTn1 (Phospho Solutions, 2010-TNI, 1:1000), cTnT (Sigma, T6277, 1:1000), and GAPDH (Ambion, AM4300). The secondary antibodies include: Goat Anti-Mouse IgG (H+L) (Southern Biotech, 1031-05, 1:2000). Goat Anti-Rabbit IgG (Life Technologies, 65-6120, 1:2000). For separation of α- and β-myosin heavy chain, samples were run by modified 6% SDS-PAGE (separating acrylamide/bis ratio 1:100; resolving gel buffer pH 9.0; running gel buffer pH 8.2; β-mercaptoethanol 600 μl/l inner gel buffer). Gels were run overnight at 4° C. and stained with BioSafe Coomassie Blue protein stain.
as §2

[7] = system: MEFs; test: qPCR of cardiac genes in reprogramming MEFs; assay type: cell-based, mouse
Procedure: as §3

[8] = system: mice following ischemia/reperfusion injury; details: cited from earlier work
[9] = GFP-, GHMT- and GHMT2m-infected cultures, day 7

Compound: c1ccc(-c2[nH]ncc2-c2ccnc3ccccc23)nc1 [LY-364947]
- spontaneously beating cells induced by GHMT2m in the presence of inhibitor [1]: enhanced cardiac reprogramming by inducing more spontaneously beating cells

Compound: O=C(NCc1ccccc1)c1csc(Nc2ccncn2)n1 [Thiazovivin]
- spontaneously beating cells induced by GHMT2m in the presence of inhibitor [1]: enhanced cardiac reprogramming and promoted formation of spontaneously beating cells

Compound: CC(C)NCC(O)c1ccc(O)c(O)c1 (stereo not shown) [Iso, isoproterenol]
- frequency of cell contraction and spontaneous calcium transients [2]: significantly increased

Compound: Fc1ccc(Cl)cc1-c1nc(Nc2ccncc2)c2nccnc2n1 [SD-208]
- spontaneously beating cells induced by GHMT2m in the presence of inhibitor [1]: enhanced cardiac reprogramming by inducing more spontaneously beating cells

Compound: O=C(NC1CCOCC1)c1ccc(-c2cc(-c3c[nH]nc3-c3ccccn3)ccn2)cc1 [GW788388]
- spontaneously beating cells induced by GHMT2m in the presence of inhibitor [1]: enhanced cardiac reprogramming by inducing more spontaneously beating cells
- TGF-β activity, cardiac fibrosis, ventricular remodeling, systolic dysfunction [3]: significantly decreased TGF-β activity, cardiac fibrosis and ventricular remodeling with attenuation of systolic dysfunction

Compound: CN(C)CCOc1cc(-c2cn[nH]c2)ccc1NC(=O)C1COc2ccccc2O1 (stereo not shown) [SR-3677]
- spontaneously beating cells induced by GHMT2m in the presence of inhibitor [1]: enhanced cardiac reprogramming and promoted formation of spontaneously beating cells

Compound: TGF-β1: Recombinant Mouse TGF-beta 1 (R&D Systems 7666-MB-005), pro-fibrotic stimulus
- cTnThigh fraction [4]: approximately 19%
- fraction of cTnT+ cells ([5]; GHMT2m-cultures treated with TGF-β1, day 7 and day 14): did not significantly decrease
- cTnT+ and α-actinin+ populations ([5]; GHMT-infected MEFs treated with TGF-β1, day 14): significantly reduced
- decrease of beating cells ([1]; GHMT2m-infected MEFs treated with TGF-β1, by one month): 100 fold
- effect on beating cells ([1]; GHMT-infected MEFs treated with TGF-β1, by one month): completely abolished
- profibrotic gene Col1a1 expression ([6]; GHMT2m-fibroblasts treated with TGF-β1): enhanced
- amount of phospho-Smad2, expression of Fn-EDA and Col1a1, formation of αSMA stress fibers ([6]; GHMT-infected cultures at day 7, TGF-β1 10 ng/ml, compared to non-treated): increased
- expression of other cardiomyocyte markers, including α-actinin, Myh6 and Actc1 ([7]; GHMT2m-cultures treated with TGF-β1): significantly down-regulated
- cardiac gene expression ([7]; GHMT-infected cultures treated with TGF-β1 for 4 days): significantly reduced

Compound: C[C@@H](N)[C@H]1CC[C@H](C(=O)Nc2ccncc2)CC1 [Y-27632]
- assembly of myocyte sarcomeres ([5]; infected MEFs treated with Y-27632 (30 μM), day 14): enhanced
- beating cell population ([1]; GHMT2m cultures of MEFs, by day 12, without or with Y-27632 (30 μM)): ~30%
- increase of the number of beating cells ([1]; GHMT-infected MEFs, Y-27632 30 μM, by 4 weeks): 7 fold
- time by which cells started to beat ([1]; MEFs, GHMT2m alone, or GHMT-infected cultures treated with Y-27632 (30 μM) or A83-01 (0.5 μM)): ≤ 12 days
- Snail and Slug expression [6, 9]: did not change
- expression of Fn-EDA and αSMA [6, 9]: decreased
- inhibition of expression of pro-fibrotic markers, comparison of inhibitors ([6]; reprogramming MEFs): inhibited expression of pro-fibrotic markers less efficiently than A83-01
- cardiomyocyte-specific gene expression ([7]; reprogramming MEFs treated with Y-27632 for 5 days, day 7): enhanced
- infarct size and remodeling [8]: decreased infarct size and remodeling
